Consider four molecules from ChEMBL document CHEMBL1147541, “Synthesis of fluorinated cyclopentenyladenine as potent inhibitor of S-adenosylhomocysteine hydrolase” (Bioorg Med Chem Lett, 2004).

By IC50 is commonly meant the concentration at which inhibition is half-maximal.

Chain of Adenosylhomocysteinase (P23526 whole entry): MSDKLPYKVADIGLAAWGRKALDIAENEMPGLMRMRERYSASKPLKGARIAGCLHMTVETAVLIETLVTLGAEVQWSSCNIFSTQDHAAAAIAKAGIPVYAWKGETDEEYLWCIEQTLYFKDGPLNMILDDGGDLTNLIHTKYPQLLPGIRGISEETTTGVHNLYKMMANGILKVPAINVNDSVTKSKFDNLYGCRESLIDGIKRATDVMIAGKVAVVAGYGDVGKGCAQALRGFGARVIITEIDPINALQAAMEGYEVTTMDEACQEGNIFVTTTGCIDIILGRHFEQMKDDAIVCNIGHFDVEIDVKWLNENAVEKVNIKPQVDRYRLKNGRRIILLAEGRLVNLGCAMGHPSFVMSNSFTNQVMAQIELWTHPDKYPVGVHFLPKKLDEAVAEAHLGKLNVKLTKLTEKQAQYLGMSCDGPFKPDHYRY

The assay concerns the target Adenosylhomocysteinase (Homo sapiens, UniProt P23526). In words: In vitro inhibitory activity against recombinant S-adenosyl-L-homocysteine hydrolase obtained from human placenta.
With `Nc1ncnc2c1ncn2[C@@H]1C=C[C@@H](O)[C@H]1O`, the IC50 came to 8.7 µM.

As to `Nc1ncnc2c1ncn2[C@@H]1C(F)=C[C@@H](O)[C@H]1O`, the IC50 was found to be 8.9 µM.

On to `Nc1ncnc2c1ncn2[C@@H]1C(F)=C(CO)[C@@H](O)[C@H]1O` [FLUORO-NEPLANOCIN A], for which the IC50 amounted to 0.47 µM.

Regarding `Nc1ncnc2c1ncn2[C@@H]1C=C(CO)[C@@H](O)[C@H]1O` [NEOPLANOCIN A], the IC50 worked out at 0.89 µM.
